Reference: patent US12509424B2, “Compound and composition as PDGF receptor kinase inhibitor” (NIPPON SHINYAKU CO., LTD., priority 2019, dated 2025)

Tests used:
PDGFR-β = PDGFR-β (Homo sapiens (Human), UniProt P09619); test: PDGFR-β tyrosine kinase inhibitory action (HTRF KinEASE-TK); type: biochemical; settings: PDGFR-β enzyme 1 ng/μL, 30° C. for 30 minutes; read-out: PDGF-β IC50
Procedure: (§1) 1. Preparation of Test Substance
This DMSO solution was diluted by 8 times with an assay buffer 1 (50 mM HEPES (pH 7.0), 0.02% NaN3, 0.01% Bovine Serum Albumin, 0.1 mM orthovanadate, 1 mM Dithiothreitol, 5 mM MgCl2, and 1 mM MnCl2) and further diluted by 5 times with an assay buffer 2 (50 mM HEPES (pH 7.0), 0.02% NaN3, 0.01% Bovine Serum Albumin, 0.1 mM orthovanadate, 1 mM Dithiothreitol, 5 mM MgCl2, 1 mM MnCl2, and 40 nM Supplemented Enzymatic Buffer (cisbio)).
2. Measurement of PDGFR-β Tyrosine Kinase Inhibitory Action
For the measurement, the HTRF KinEASE-TK kit from Cisbio Bioassays SAS was used. To a 384 well plate, the test substance solution was added at 4 μL each, then 2 μL of a PDGFR-β enzyme solution (final concentration of 1 ng/μL, Carna Biosciences, Inc.) and 4 μL of a substrate solution obtained by adding 0.6 μM ATP to TK substrate-3-biotin (cisbio) were added, and the solution was allowed to react at 30° C. for 30 minutes at a final concentration of the test substance being 0.01 to 10,000 nM.
Thereafter, 10 μL of a detection solution (cisbio) was added to each well and allowed to react at 30° C. for 1 hour. The fluorescence intensity was measured with a microplate reader (Spectra Max M5, Molecular device).
(§2) 3. Analysis of Measurement Results

[1] = test system: pulmonary arterial smooth muscle cells; test: Suppression of proliferation of pulmonary arterial smooth muscle cells (PDGF-BB stimulation, BrdU); type: cell-based; settings: PASMC, 24 h; healthy human derived pulmonary arterial smooth muscle cells; human PDGF-BB 10 ng/mL stimulation; BrdU uptake after 1 day; test substance final concentration 3 to 10,000 nM; read-out: Human normal PASMC proliferation suppression (PDGF stimulation_IC50)
Procedure: as §1
Furthermore, it was diluted by 50 times with distilled water.
2. Measurement of Suppression Action Against Proliferation of Pulmonary Arterial Smooth Muscle Cells
The day after healthy human derived pulmonary arterial smooth muscle cells were seeded onto a 96 well plate using a smooth muscle cell proliferation medium, the proliferation medium was replaced with a 0.1% FBS medium, and the cells were cultured for an additional day. A test substance solution was diluted by 10 times with a medium containing BrdU and human PDGF-BB (final concentration of 10 ng/mL, Sigma-Aldrich) and added to cells in equal amounts so as to reach a final concentration of 3 to 10,000 nM. Also, to the human PDGF-BB negative control, BrdU and 0.1% DMSO solution were added. After culturing for 1 day, the amount of BrdU taken up by the proliferating cells was measured using an anti-BrdU antibody.
as §2

PDGFR-β, sequence (P09619 33-1106): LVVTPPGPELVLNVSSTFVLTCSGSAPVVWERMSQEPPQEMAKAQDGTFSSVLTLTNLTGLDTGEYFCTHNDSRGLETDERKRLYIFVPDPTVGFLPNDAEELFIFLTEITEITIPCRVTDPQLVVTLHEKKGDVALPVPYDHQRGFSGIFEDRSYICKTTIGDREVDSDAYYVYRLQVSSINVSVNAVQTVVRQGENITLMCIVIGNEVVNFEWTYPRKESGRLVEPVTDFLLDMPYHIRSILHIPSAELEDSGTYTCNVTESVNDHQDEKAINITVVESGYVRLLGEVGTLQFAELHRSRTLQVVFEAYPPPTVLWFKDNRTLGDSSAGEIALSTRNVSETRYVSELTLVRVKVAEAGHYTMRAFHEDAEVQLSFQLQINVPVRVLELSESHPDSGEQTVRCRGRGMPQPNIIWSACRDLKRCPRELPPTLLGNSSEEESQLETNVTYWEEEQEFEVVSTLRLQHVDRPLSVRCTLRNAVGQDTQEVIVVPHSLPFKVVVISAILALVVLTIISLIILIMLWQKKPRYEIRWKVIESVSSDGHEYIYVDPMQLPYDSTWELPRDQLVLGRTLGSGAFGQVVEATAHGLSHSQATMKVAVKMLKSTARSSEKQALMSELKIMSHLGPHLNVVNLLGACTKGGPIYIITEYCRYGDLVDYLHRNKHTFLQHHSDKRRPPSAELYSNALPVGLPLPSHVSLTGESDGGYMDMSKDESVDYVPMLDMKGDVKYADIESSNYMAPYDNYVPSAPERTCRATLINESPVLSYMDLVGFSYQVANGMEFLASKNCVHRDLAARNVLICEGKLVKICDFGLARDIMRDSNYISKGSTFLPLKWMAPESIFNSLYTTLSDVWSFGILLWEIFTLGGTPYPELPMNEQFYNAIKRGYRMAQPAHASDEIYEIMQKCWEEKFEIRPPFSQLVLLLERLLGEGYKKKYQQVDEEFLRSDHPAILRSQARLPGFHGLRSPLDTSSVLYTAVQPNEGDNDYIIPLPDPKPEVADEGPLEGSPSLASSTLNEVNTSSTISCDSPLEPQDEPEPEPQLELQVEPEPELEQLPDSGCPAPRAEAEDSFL

| SMILES | IC50 (PDGFR-β) [µM] | IC50 [1] [µM] |
| --- | --- | --- |
| Cc1ncc(C(=O)N[C@H]2CCCC[C@@H]2O)cc1C#Cc1cncc(C2CC2)c1 [Example 73, 5-[(5-cyclopropylpyridin-3-yl)ethynyl]-N-[(1S,2S)-2-hydroxycyclohexyl]-6-methylpyridine-3-carboxamide] | 0.22 | 0.08 |
| Cc1ccc(C(=O)N[C@H]2CCCC[C@@H]2O)cc1C#Cc1cncc(Br)n1 [Example 74, 3-[(6-bromopyrazin-2-yl)ethynyl]-N-[(1S,2S)-2-hydroxycyclohexyl]-4-methylbenzamide] | 0.18 | 0.018 |
| Cc1ccc(C(=O)N[C@@H](CO)[C@@H](O)c2ccccc2)cc1C#Cc1cncc(Br)c1 [Example 76, 3-[(5-bromopyridin-3-yl)ethynyl]-N-[(1S,2S)-1,3-dihydroxy-1-phenylpropan-2-yl]-4-methylbenzamide] | 0.049 | 0.027 |
| CNc1ncc2c(Nc3cc(C(=O)N[C@H]4CCCC[C@@H]4O)ccc3C)cccc2n1 [Example 82, N-[(1S,2S)-2-hydroxycyclohexyl]-4-methyl-3-{[2-(methylamino)quinazolin-5-yl]amino}benzamide] | 0.027 | 0.072 |
| Cc1ccc(C(=O)N[C@@H](CO)[C@@H](O)c2ccccc2)cc1N1CCc2nc(N)ncc2C1 [Example 83, 3-(2-amino-7,8-dihydropyrido[4,3-d]pyrimidin-6(5H)-yl)-N-[(1S,2S)-1,3-dihydroxy-1-phenylpropan-2-yl]-4-methylbenzamide] | 0.005 | 0.048 |
| Cc1ccc(C(=O)N[C@H]2CCCC[C@@H]2O)cc1NCc1cnc2cccnn12 [Example 110, N-[(1S,2S)-2-hydroxycyclohexyl]-3-{[(imidazo[1,2-b]pyridazin-3-yl)methyl]amino}-4-methylbenzamide] | 0.35 | 0.24 |
| Cc1ccc(C(=O)N[C@H]2CCCC[C@@H]2O)cc1NCc1cncc(-c2cn3ccnc3cn2)c1 [Example 111, N-[(1S,2S)-2-hydroxycyclohexyl]-3-({[5-(imidazo[1,2-a]pyrazin-6-yl)pyridin-3-yl]methyl}amino)-4-methylbenzamide] | 0.15 | 0.38 |
| Cc1ccc(C(=O)N[C@H]2CCCC[C@@H]2O)cc1NCc1cnn2cccnc12 [Example 119, N-[(1S,2S)-2-hydroxycyclohexyl]-4-methyl-3-{[(pyrazolo[1,5-a]pyrimidin-3-yl)methyl]amino}benzamide] | 0.33 | 0.093 |
| Cc1ccc(C(=O)N[C@H]2CCCC[C@@H]2O)cc1NCc1ccc(NC(=O)C2CC2)nc1 [Example 120, 3-[({6-[(cyclopropanecarbonyl)amino]pyridin-3-yl}methyl)amino]-N-[(1S,2S)-2-hydroxycyclohexyl]-4-methylbenzamide] | 0.02 | 0.034 |

Second part, led by results:

| IC50 (PDGFR-β) [µM] | SMILES | IC50 [1] [µM] |
| --- | --- | --- |
| 0.046 | Cc1ccc(C(=O)N[C@H]2CCCC[C@@H]2O)cc1NCc1cnc2[nH]ncc2c1 [Example 109, N-[(1S,2S)-2-hydroxycyclohexyl]-4-methyl-3-{[(1H-pyrazolo[3,4-b]pyridin-5-yl)methyl]amino}benzamide] | 0.17 |
| 0.079 | Cc1ccc(C(=O)N[C@H]2CCCC[C@@H]2O)cc1NCc1ccc(NCC2CC2)nc1 [Example 117, 3-[({6-[(cyclopropylmethyl)amino]pyridin-3-yl}methyl)amino]-N-[(1S,2S)-2-hydroxycyclohexyl]-4-methylbenzamide] | 0.23 |
| 0.39 | Cc1ccc(C(=O)N[C@H]2CCCC[C@@H]2O)cc1NCc1ccc(-c2ccccn2)nc1 [Example 118, 3-{[([2,2′-bipyridin]-5-yl)methyl]amino}-N-[(1S,2S)-2-hydroxycyclohexyl]-4-methylbenzamide] | 0.14 |
| 0.16 | Cc1ccc(C(=O)N[C@H]2CCCC[C@@H]2O)cc1NCc1cnc(-c2ccccc2)nc1 [Example 121, N-[(1S,2S)-2-hydroxycyclohexyl]-4-methyl-3-{[(2-phenylpyrimidin-5-yl)methyl]amino}benzamide] | 0.3 |
